Test results: patent US9636339B2, “Phenyl-dihydropyridine derivatives as aldosterone synthase inhibitors” (Hoffmann-La Roche Inc., priority 2013, dated 2017)

Experiments:
[1] = molecular target: human CYP11B1 (Homo sapiens (Human), UniProt P15538); experiment: G-402 cellular enzyme assay, human CYP11B1 (cortisol release); type: cell-based; conditions: G-402 cells, 1 μM Deoxycortisol
Text: (§1) Herein we identified the use of the G-402 cell line as a host cell to ectopically express (transiently or stably) enzymes of the CYP11 family. Specifically we developed stable G-402 cells expressing ectopically human CYP11B1, human CYP11B2, human CYP11A1, cynmolgus CYP11B1 or cynomolgus CYP11B2 enzyme activity. Importantly the identified cell line G-402 expresses co-factors (adrenodoxin and adrenodoxin reductase) important for the activity of the CYP11 family and no relevant enzyme activity of the CYP11 family (in comparison to H295R cells) was detected in these cells. Therefore the G-402 cell line is uniquely suited as a host cell for the ectopic expression of enzymes from the CYP11 family. G-402 cells can be obtained from ATCC (CRL-1440) and were originally derived from a renal leiomyoblastoma.
(§2) The expression plasmids contains the ORF for either human/cyno CYP11B1 or CYP11B2 under the control of a suitable promoter (CMV-promoter) and a suitable resistance marker (neomycin). Using standard techniques the expression plasmid is transfected into G-402 cells and these cells are then selected for expressing the given resistance markers. Individual cell-clones are then selected and assessed for displaying the desired enzymatic activity using 11-Deoxycorticosterone (Cyp11B2) or 11-Deoxycortisol (Cyp11B1) as a substrate.
(§3) G-402 cells expressing CYP11 constructs were established as described above and maintained in McCoy's 5a Medium Modified, ATCC Catalog No. 30-2007 containing 10% FCS and 400 μg/ml G418 (Geneticin) at 37° C. under an atmosphere of 5% CO2/95% air. Cellular enzyme assays were performed in DMEM/F12 medium containing 2.5% charcoal treated FCS and appropriate concentration of substrate (0.3-10 uM 11-Deoxycorticosterone, 11-Deoxycortisol or Corticosterone). For assaying enzymatic activity, cells were plated onto 96 well plates and incubated for 16 h. An aliquot of the supernatant is then transferred and analyzed for the concentration of the expected product (Aldosterone for CYP11B2; Cortisol for CYP11B1). The concentrations of these steroids can be determined using HTRF assays from CisBio analyzing either Aldosterone or Cortisol.
(§4) Inhibition of the release of produced steroids can be used as a measure of the respective enzyme inhibition by test compounds added during the cellular enzyme assay. The dose dependent inhibition of enzymatic activity by a compound is calculated by means of plotting added inhibitor concentrations (x-axes) vs. measured steroid/product level (y-axes). The inhibition is then calculated by fitting the following 4-parameter sigmoidal function (Morgan-Mercer-Flodin (MMF) model) to the raw data points using the least squares method:
(§5) [formula] wherein, A is the maximum y value, B is the EC50 factor determined using XLFit, C is the minimum y value and D is the slope value.
(§6) EC50 values for compounds claimed herein were tested with the G402-based assay system described. Cyp11B2 enzyme activity was tested in presence of 1 μM Deoxycorticosterone and variable amounts of inhibitors; Cyp11B1 enzyme activity was tested in presence of 1 μM Deoxycortisol and variable amounts of inhibitors.

[2] = molecular target: human CYP11B2 (Homo sapiens (Human), UniProt P19099); experiment: G-402 cellular enzyme assay, human CYP11B2 (aldosterone release); type: cell-based; conditions: G-402 cells, 1 μM Deoxycorticosterone
Chain of human CYP11B2 (P19099 25-503): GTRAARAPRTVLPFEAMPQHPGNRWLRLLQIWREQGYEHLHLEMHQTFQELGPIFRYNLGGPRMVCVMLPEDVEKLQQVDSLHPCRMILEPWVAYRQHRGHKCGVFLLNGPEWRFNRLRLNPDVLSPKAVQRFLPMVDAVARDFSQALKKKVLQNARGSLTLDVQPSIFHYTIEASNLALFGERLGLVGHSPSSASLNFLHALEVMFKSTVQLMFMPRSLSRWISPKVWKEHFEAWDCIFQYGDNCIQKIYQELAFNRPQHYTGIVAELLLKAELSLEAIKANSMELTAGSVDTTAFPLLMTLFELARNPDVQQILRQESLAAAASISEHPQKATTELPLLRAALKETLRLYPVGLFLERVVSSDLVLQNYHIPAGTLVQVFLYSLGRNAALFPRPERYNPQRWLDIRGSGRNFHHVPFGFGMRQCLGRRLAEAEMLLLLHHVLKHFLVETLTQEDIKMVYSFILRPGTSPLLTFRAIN
Text: as §1, §2, §3, §4, §5, §6

[3] = test system: rat model of chronic kidney disease; conditions: cited from earlier work; for plasma aldosterone: FAD286: 4 weeks of treatment, spironolactone: 4 and 8 weeks of treatment; for angiotensin II and salt-stimulated PAI-1 mRNA expression: aorta and heart; for renal effects of angiotensin II and high salt (albuminuria, azotemia, renovascular hypertrophy, glomerular injury, PAI-1, osteopontin mRNA, tubulointerstitial fibrosis): rat, in vivo
[4] = test system: rats with experimental heart failure; conditions: rat, in vivo; cited from earlier work
[5] = test system: patients with primary aldosteronism; conditions: oral; cited from earlier work

Chain of human CYP11B1 (P15538 25-503): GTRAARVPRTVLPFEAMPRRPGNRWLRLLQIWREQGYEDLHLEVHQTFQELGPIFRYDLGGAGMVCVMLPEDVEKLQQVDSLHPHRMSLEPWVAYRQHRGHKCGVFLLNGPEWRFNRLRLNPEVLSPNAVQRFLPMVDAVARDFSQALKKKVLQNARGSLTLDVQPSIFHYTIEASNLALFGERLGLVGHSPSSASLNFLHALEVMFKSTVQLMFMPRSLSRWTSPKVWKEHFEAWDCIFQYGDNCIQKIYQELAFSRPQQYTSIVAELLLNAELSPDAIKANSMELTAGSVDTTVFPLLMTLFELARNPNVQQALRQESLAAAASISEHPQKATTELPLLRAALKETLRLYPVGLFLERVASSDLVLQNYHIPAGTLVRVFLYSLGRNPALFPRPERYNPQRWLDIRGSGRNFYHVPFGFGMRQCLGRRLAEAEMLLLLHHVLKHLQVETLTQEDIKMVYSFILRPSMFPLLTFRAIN

| SMILES | EC50 [1] | EC50 [2] | other results |
| --- | --- | --- | --- |
| CN(C)C(=O)CC1CCCc2c(-c3ccc(C(F)(F)F)cc3F)cncc21 (single isomer, unassigned; (-)) [Example 28, (−)-(R or S)-2-[4-[2-fluoro-4-(trifluoromethyl)phenyl]-5,6,7,8-tetrahydroisoquinolin-8-yl]-N,N-dimethyl-acetamide] | 9110 nM | 133 nM | – |
| N#Cc1ccc([C@H]2CCCc3cncn32)cc1 [FAD286] | – | – | plasma aldosterone [3]: reduced; angiotensin II and salt-stimulated PAI-1 mRNA expression [3]: not; renal effects of angiotensin II and high salt (albuminuria, azotemia, renovascular hypertrophy, glomerular injury, PAI-1, osteopontin mRNA, tubulointerstitial fibrosis) [3]: prevented; blood pressure and cardiovascular function and structure [4]: improved; kidney function and morphology [4]: improve |
| N#Cc1ccc([C@H]2CCc3cncn32)c(F)c1 [LCI699] | – | – | blood pressure [5]: mildly decreased; circulating aldosterone levels [5]: significantly lower; hypokalemia [5]: corrected |
| CC(=O)S[C@@H]1CC2=CC(=O)CC[C@]2(C)[C@H]2CC[C@@]3(C)[C@@H](CC[C@@]34CCC(=O)O4)[C@H]12 [spironolactone] | – | – | plasma aldosterone [3]: increased; angiotensin II and salt-stimulated PAI-1 mRNA expression [3]: enhanced; renal effects of angiotensin II and high salt (albuminuria, azotemia, renovascular hypertrophy, glomerular injury, PAI-1, osteopontin mRNA, tubulointerstitial fibrosis) [3]: prevented |

Further lines, with some results ahead:

| EC50 [1] | EC50 [2] | SMILES | other results |
| --- | --- | --- | --- |
| 3080 nM | 32 nM | CN(C)C(=O)CC1CCCc2c(-c3ccc(C(F)(F)F)cc3F)cncc21 (racemic) [Example 26, (rac)-2-[4-[2-Fluoro-4-(trifluoromethyl)phenyl]-5,6,7,8-tetrahydroisoquinolin-8-yl]-N,N-dimethyl-acetamide] | – |
| 4080 nM | 212 nM | CCNC(=O)CC1CCCc2c(-c3ccc(C(F)(F)F)cc3F)cncc21 (racemic) [Example 29, (rac)-N-Ethyl-2-[4-[2-fluoro-4-(trifluoromethyl)phenyl]-5,6,7,8-tetrahydroisoquinolin-8-yl]acetamide] | – |
| 448 nM | 37 nM | O=C(CC1CCCc2c(-c3ccc(C(F)(F)F)cc3F)cncc21)NC1CC1 (racemic) [Example 30, (rac)-N-Cyclopropyl-2-[4-[2-fluoro-4-(trifluoromethyl)phenyl]-5,6,7,8-tetrahydroisoquinolin-8-yl]acetamide] | – |
| 1780 nM | 71 nM | O=C(CC1CCCc2c(-c3ccc(C(F)(F)F)cc3F)cncc21)NCC1CC1 (racemic) [Example 31, (rac)-N-(Cyclopropylmethyl)-2-[4-[2-fluoro-4-(trifluoromethyl)phenyl]-5,6,7,8-tetrahydroisoquinolin-8-yl]acetamide] | – |
| 5060 nM | 222 nM | COCCNC(=O)CC1CCCc2c(-c3ccc(C(F)(F)F)cc3F)cncc21 (racemic) [Example 32, (rac)-2-[4-[2-Fluoro-4-(trifluoromethyl)phenyl]-5,6,7,8-tetrahydroisoquinolin-8-yl]-N-(2-methoxyethyl)acetamide] | – |
| 1490 nM | 36 nM | CN(C)C(=O)CC1CCCc2c(-c3ccc(C(F)(F)F)cc3F)cncc21 (single isomer, unassigned; (+)) [Example 27, (+)-(R or S)-2-[4-[2-fluoro-4-(trifluoromethyl)phenyl]-5,6,7,8-tetrahydroisoquinolin-8-yl]-N,N-dimethyl-acetamide] | – |
